Test results as given in patent US20060074243A1, “Hydroxamic acid and amide compounds and their use as protease inhibitors” (Pharmacia Corporation, priority 2002, published 2006).
pKi: −log10 of the molar value.

Key:
Experiment in all cases: In vitro MMP inhibition analysis (fluorogenic peptide substrate cleavage), Ki
Assay type in all cases: biochemical
[1] = target: T1, Human recombinant MMP-14 (Homo sapiens, UniProt P50281)
T1 construct: The catalytic domain enzyme was expressed in E. coli inclusion bodies, solubilized in urea; made in house
Description: (§1) Several compounds and salts were analyzed in an in vitro assay to determine their ability to inhibit the MMP cleavage of peptide substrates. Inhibition constant (Ki) were calculated from the assayed compound-MMP interactions.
(§2) Human recombinant MMP-1, MMP-2, MMP-9, MMP-13, and MMP-14 were used in this assay. All enzymes were prepared in Assignee's laboratories following usual laboratory procedures. Protocols for the preparation and use of these enzymes are available in the scientific literature. See, e.g., Enzyme Nomenclature (Academic Press, San Diego, Calif., 1992) (and the citations therein). See also, Frije et al., J. Biol. Chem., 26(24), 16766-73 (1994).
The MMP-14 full length cDNA was provided by Dr. Gregory Goldberg of Washington University (St. Louis, Mo.). The catalytic domain enzyme was expressed in E. coli inclusion bodies, solubilized in urea, purified on a preparative […] reverse phase HPLC column, and then refolded in the presence of zinc acetate and purified for use.
(§3) All MMPs were activated using 4-aminophenylmercuric acetate (“APMA”, Sigma Chemical, St. Louis, Mo.) or trypsin. MMP-9 also was activated using human recombinant MMP-3 (purified in Assignee's laboratory following standard cloning and purification techniques).
(§4) The following fluorogenic, methoxycoumarin-containing polypeptide substrate (I) was used in the MMP inhibition assays: MCA-ArgProLeuGlyLeuDpaAlaArgGluArgNH2 (I) “MCA” is 7-methoxycoumarin-4-yl acetyl. Substrate (I) was prepared Assignee's laboratory. In the absence of MMP inhibitory activity, the substrate is cleaved at the Gly-Leu peptide bond. This cleavage separates the highly fluorogenic peptide from the 2,4-dinitrophenyl quencher, thus resulting in increase of fluorescent intensity.
(§5) The stock solutions of the assayed compounds and salts were prepared in […] (DMSO). These stock solutions were diluted in Buffer A (100 mM Tris-HCl, 100 mM NaCl, 10 mM CaCl2, 0.05% polyoxyethylene 23 lauryl ether, pH 7.5) to obtain solutions with different compound concentrations, i.e., assay solutions with different concentrations of the assayed […] compound. The experiment controls contained the same amount of Buffer A/DMSO as the assayed sample, but contained none of the tested compound or salt.
(§6) The assays from which the Ki determinations were made were performed as follows. The assayed compound samples were incubated in separate wells of untreated white polystyrene plates (Nunc Nalgene International, Rochester, N.Y.), and analyzed on a Tecan SpectraFlour Plus plate reader. The excitation wavelength was 330 nm, and the emission wavelength—420 nm. All samples (assayed compounds and controls) were incubated in separate plate wells at room temperature for 1 hr in the presence of 4 μM of MMP substrate (I). In the absence of MMP inhibitory activity, substrate (I) was cleaved at the Gly-Leu bond resulting in an increase of relative fluorescence. Inhibition was observed as a reduced rate of this increase in relative fluorescence. […] This protocol is a modification of method by Knight et al., FEBS Lett., 296(3), 263-266 (1992). Apparent inhibitory constants were determined by non-linear regression of reaction velocity as a function of inhibitor and enzyme concentration using Morrison's equation, as described by Kuzmic, Anal. Biochem. 286, 45-50 (2000). Modifications were made in the non-linear regression method to allow a common control reaction rate and effective enzyme concentration to be shared between all dose-response relationships on a given assay plate. Since the substrate concentration was chosen to be at or below the Km, the apparent Ki's from this analysis were reported as Ki's without correction for the influence of substrate.
(§7) The above protocols were used to determine Ki constants for the compounds in Examples 2-35 above. All Ki values in Table 1 are given in nM units.

[2] = target: T2, Human recombinant MMP-9 (Homo sapiens, UniProt P14780)
T2 construct: made in house; host or cells: MMP-9-transfected HT1080 cells (spent media)
Description: as §1, §2
The MMP-9 proenzyme was purified by gelatin Sepharose chromatography from spent media of MMP-9-transfected HT1080 cells provided by Dr. Howard Welgus of Washington University (St. Louis, Mo.).
as §3, §4, §5, §6, §7

[3] = target: T3, Human recombinant MMP-1 (Homo sapiens, UniProt P03956)
T3 construct: made in house; host or cells: MMP-1-transfected HT-1080 cells (spent media)
T3 sequence (P03956 100-469): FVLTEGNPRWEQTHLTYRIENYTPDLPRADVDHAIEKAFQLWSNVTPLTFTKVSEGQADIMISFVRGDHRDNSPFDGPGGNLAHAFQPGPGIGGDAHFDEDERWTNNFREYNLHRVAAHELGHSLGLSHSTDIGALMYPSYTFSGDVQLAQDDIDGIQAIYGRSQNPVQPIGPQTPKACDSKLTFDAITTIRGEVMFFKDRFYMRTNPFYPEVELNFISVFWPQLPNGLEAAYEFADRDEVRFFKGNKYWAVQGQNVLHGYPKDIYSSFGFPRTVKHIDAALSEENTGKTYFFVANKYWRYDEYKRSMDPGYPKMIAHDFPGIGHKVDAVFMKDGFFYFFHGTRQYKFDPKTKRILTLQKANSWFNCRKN
Description: as §1, §2
The MMP-1 proenzyme was purified from the spent media of MMP-1-transfected HT-1080 cells provided by Dr. Harold Welgus of Washington University (St. Louis, Mo.). The protein was purified on a zinc chelating column.
as §3, §4, §5, §6, §7

T2 sequence (P14780 107-707 limits assumed): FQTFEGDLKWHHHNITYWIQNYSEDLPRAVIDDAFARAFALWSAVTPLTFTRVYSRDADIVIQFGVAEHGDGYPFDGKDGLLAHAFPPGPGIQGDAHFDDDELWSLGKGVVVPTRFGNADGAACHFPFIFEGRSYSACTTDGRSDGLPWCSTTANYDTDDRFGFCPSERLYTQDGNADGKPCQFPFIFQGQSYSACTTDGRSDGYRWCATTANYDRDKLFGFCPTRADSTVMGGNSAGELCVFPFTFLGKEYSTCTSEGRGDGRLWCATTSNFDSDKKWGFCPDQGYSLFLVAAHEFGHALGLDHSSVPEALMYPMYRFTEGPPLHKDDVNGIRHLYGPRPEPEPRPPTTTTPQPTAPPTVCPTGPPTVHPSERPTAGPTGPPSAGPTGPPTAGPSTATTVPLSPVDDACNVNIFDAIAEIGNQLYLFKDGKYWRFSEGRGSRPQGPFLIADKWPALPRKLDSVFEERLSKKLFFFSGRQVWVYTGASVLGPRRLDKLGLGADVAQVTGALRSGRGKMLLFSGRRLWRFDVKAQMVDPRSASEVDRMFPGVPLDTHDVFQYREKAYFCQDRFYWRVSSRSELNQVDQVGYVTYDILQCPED

pKi ([1]; Table 1) | pKi ([2]; Table 1) | pKi ([3]; Table 1) | pKi ([1]; Table 2) | pKi ([2]; Table 2) | pKi ([3]; Table 2) | Structure (SMILES)
 |  |  | 6.13 | 9.06 | 5.66 | CCN1CCC(C(=O)NO)(S(=O)(=O)c2ccc(-c3ccc(OCCCCO)cc3)cc2)CC1 [Example 118]
 |  |  | < 5.00 | 8.21 | < 5.00 | CCCCc1ccc(-c2ccc(S(=O)(=O)C3(C(=O)NO)CCN(CC)CC3)cc2)cn1 [Example 139]
6.24 | 9.59 | 5.52 |  |  |  | CCN1CCC(C(=O)NO)(S(=O)(=O)c2ccc(-c3ccc(CCC(C)(F)F)cc3)cc2)CC1 [Example 61]
5.59 | 9.24 | < 5.00 |  |  |  | CCN1CCC(C(=O)NO)(S(=O)(=O)c2ccc(-c3ccc(CCC(F)(F)C(F)(F)F)cn3)cc2)CC1 [Example 52]
5.67 | 9.17 | 5.06 |  |  |  | O=C(NO)C1(S(=O)(=O)c2ccc(-c3ccc(CCCC(F)(F)F)cc3)cc2)CCN(C2CC2)CC1 [Example 44]
6.08 | 9.72 | 5.07 |  |  |  | COCCN1CCC(C(=O)NO)(S(=O)(=O)c2ccc(-c3ccc(CCC(C)(F)F)cn3)cc2)CC1 [Example 67]
5.76 | 8.94 | < 5.00 |  |  |  | O=C(NO)C1(S(=O)(=O)c2ccc(-c3ccc(CCC(F)(F)C(F)(F)F)cc3)cc2)CCN(C2CC2)CC1 [Example 45]
< 5.00 | 9.17 | < 5.00 |  |  |  | CCN1CCC(C(=O)NO)(S(=O)(=O)c2ccc(-c3cnc(CCC(C)(F)F)cn3)cc2)CC1 [Example 64]
5.94 | 9.03 | 5.29 |  |  |  | O=C(NO)C1(S(=O)(=O)c2ccc(-c3ccc(CCC(F)(F)C(F)(F)F)cc3)cc2)CCOCC1 [Example 41]
6.41 | 9.80 | 5.66 |  |  |  | CC(F)(F)CCc1ccc(-c2ccc(S(=O)(=O)C3(C(=O)NO)CCN(C4CC4)CC3)cc2)cc1 [Example 59]
6.63 | 10.10 | 5.76 |  |  |  | COCCN1CCC(C(=O)NO)(S(=O)(=O)c2ccc(-c3ccc(CCC(C)(F)F)cc3)cc2)CC1 [Example 63]
5.40 | 9.00 | < 5.00 |  |  |  | CCN1CCC(C(=O)NO)(S(=O)(=O)c2ccc(-c3ccc(CCCC(F)(F)F)cn3)cc2)CC1 [Example 53]

The next lines start with the compound.

Structure (SMILES) | pKi ([1]; Table 1) | pKi ([2]; Table 1) | pKi ([3]; Table 1) | pKi ([1]; Table 2) | pKi ([2]; Table 2) | pKi ([3]; Table 2)
O=C(NO)C1(S(=O)(=O)c2ccc(-c3cnc(CCCC(F)(F)F)cn3)cc2)CCOCC1 [Example 58] | < 5.00 | 8.78 | < 5.00 |  |  | 
O=C(NO)C1(S(=O)(=O)c2ccc(-c3cnc(OCC(F)(F)C(F)(F)F)cn3)cc2)CCN(C2CC2)CC1 [Example 156] |  |  |  | 5.94 | 9.32 | 5.13
COCCN1CCC(C(=O)NO)(S(=O)(=O)c2ccc(-c3ccc(-c4ccccc4)cc3)cc2)CC1 [Example 152] |  |  |  | 6.84 | 10.05 | 6.07
CCOCCOc1ccc(-c2ccc(S(=O)(=O)C3(C(=O)NO)CCOCC3)cc2)cc1 [Example 37] | 6.20 | 8.45 | 5.84 |  |  | 
O=C(NO)C1(S(=O)(=O)c2ccc(-c3ccc(-c4ccc(OC(F)(F)F)cc4)cn3)cc2)CCN(C2CC2)CC1 [Example 145] |  |  |  | 6.25 | 8.18 | 5.47
CCCCOc1cnc(-c2ccc(S(=O)(=O)C3(C(=O)NO)CCOCC3)cc2)cn1 [Example 73] |  |  |  | 6.80 | 9.95 | 5.76
CCCCOc1ccc(-c2ccc(S(=O)(=O)C3(C(=O)NO)CCN(CCOC)CC3)cc2)cc1 [Example 119] |  |  |  | 6.77 | 9.82 | 5.75
CCCCOc1ccc(-c2ccc(S(=O)(=O)C3(C(=O)NO)CCN(C4CC4)CC3)cc2)cc1 [Example 120] |  |  |  | 6.51 | 9.47 | 5.61
O=C(NO)C1(S(=O)(=O)c2ccc(-c3cnc(-c4cccs4)cn3)cc2)CCOCC1 [Example 160] |  |  |  | < 5.00 | 8.50 | < 5.00
CCN1CCC(C(=O)NO)(S(=O)(=O)c2ccc(-c3ccc(-c4ccncc4)cc3)cc2)CC1 [Example 136] |  |  |  | 6.51 | 9.38 | 5.97
CCN1CCC(C(=O)NO)(S(=O)(=O)c2ccc(-c3noc(-c4ccncc4)n3)cc2)CC1 [Example 148] |  |  |  | 5.99 | 7.41 | < 5.00
COCCN1CCC(C(=O)NO)(S(=O)(=O)c2ccc(-c3cnc(OCC(F)(F)C(F)(F)F)cn3)cc2)CC1 [Example 157] |  |  |  | 5.91 | 9.38 | 5.02
O=C(NO)C1(S(=O)(=O)c2ccc(-c3ccc(OC(F)(F)C(F)F)cc3)cc2)CCOCC1 [Example 68] | 6.63 | 9.85 | 6.64 |  |  | 
COCC#Cc1cnc(-c2ccc(S(=O)(=O)C3(C(=O)NO)CCOCC3)cc2)cn1 [Example 164] |  |  |  | 6.82 | 9.24 | 5.60
O=C(NO)C1(S(=O)(=O)c2ccc(-c3cscc3-c3ccc(F)cc3)cc2)CCOCC1 [Example 132] |  |  |  | 5.50 | 6.53 | < 5.00
O=C(NO)C1(S(=O)(=O)c2ccc(-c3cnc(CCC(F)(F)C(F)(F)F)nc3)cc2)CCOCC1 [Example 142] |  |  |  | < 5.00 | 7.12 | < 5.00
O=C(NO)C1(S(=O)(=O)c2ccc(-c3ccc(CCC(F)(F)C(F)(F)F)cn3)cc2)CCN(C2CC2)CC1 [Example 50] | 5.92 | 9.66 | 5.10 |  |  | 
CCc1csc(Nc2ccc(-c3ccc(S(=O)(=O)C4(C(=O)NO)CCOCC4)cc3)cc2)n1 [Example 124] |  |  |  | 5.21 | 6.72 | < 5.60
O=C(NO)C1(S(=O)(=O)c2ccc(-c3ccc(-n4cncn4)cc3)cc2)CCOCC1 [Example 126] |  |  |  | 6.04 | 8.72 | 5.91
CCOc1ccc(-c2ccc(S(=O)(=O)C3(C(=O)NO)CCOCC3)cc2)cc1 [Example 163] |  |  |  | 7.25 | 10.52 | 6.49
CCCCCc1ccc(-c2ccc(S(=O)(=O)C3(C(=O)NO)CCOCC3)cc2)cc1 [Example 75] |  |  |  | 6.21 | 9.00 | 5.40
CC(F)(F)CCc1cnc(-c2ccc(S(=O)(=O)C3(C(=O)NO)CCOCC3)cc2)cn1 [Example 60] | 5.73 | 9.21 | < 5.00 |  |  | 
O=C(NO)C1(S(=O)(=O)c2ccc(-c3ccc(CCC(F)(F)C(F)(F)F)cn3)cc2)CCOCC1 [Example 36] | 6.28 | 9.59 | 5.33 |  |  | 
